Data as given in EP0186977A2, “Renin-inhibitory dipeptides, their preparation and use” (SANKYO COMPANY LIMITED, priority 1984, dated 1986).

Biological target: T1, human renin (Homo sapiens, UniProt P00797)
T1 sequence (P00797 67-406): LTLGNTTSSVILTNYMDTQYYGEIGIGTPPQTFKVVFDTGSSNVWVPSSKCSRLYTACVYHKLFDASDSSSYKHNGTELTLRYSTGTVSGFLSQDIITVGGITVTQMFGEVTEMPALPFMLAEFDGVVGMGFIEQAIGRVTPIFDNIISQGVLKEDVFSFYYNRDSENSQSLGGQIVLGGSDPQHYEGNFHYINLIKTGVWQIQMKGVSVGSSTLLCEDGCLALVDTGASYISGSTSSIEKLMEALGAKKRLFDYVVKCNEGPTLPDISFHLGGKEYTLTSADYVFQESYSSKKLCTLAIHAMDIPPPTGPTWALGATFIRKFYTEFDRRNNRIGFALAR
Assay: Inhibition of renin activity (human renin with sheep angiotensinogen, assay of remaining angiotensin I)
Assay type: biochemical
Conditions: 1 x 10 ^6M of the test compound, phosphate buffer pH 7.3, 10 minutes at 37°C, mean of 3 or 4 experiments
Description: The ability of various compounds of the invention to inhibit the activity of renin was determined according to the following method, which follows essentially the procedure of Kokubu et al. [Hypertension, 5, 191-197 (1983)].
Specifically, each test compound was dissolved in 60% v/v aqueous ethanol. Human renin activity in the presence and absence of each compound was measured using sheep angiotensinogen. The total volume of 1 ml of assay mixture contained 0.1 mole/litre phosphate buffer (pH 7.3), human renin (equivalent to 0.5 ng angiotensin I per ml per minute), sheep angiotensinogen (equivalent to 200 ng angiotensin 1), 1 x 10 ^6M of the test compound, 6% v/v ethanol and angiotensinase inhibitors (10 mmole/litre sodium ethylenediaminetetraacetate and 3.4 mmole/litre 8-hydroxyquinoline). The mixture was allowed to react for 10 minutes at 37°C, and then the reaction was stopped by placing the reaction tube in a boiling water bath for 5 minutes. The mixture was then centrifuged and the supernatant (0.05-0.1 ml) was used to assay remaining angiotensin I.
An identical experiment was carried out, as a control, except that the test compound was omitted. From the values obtained were calculated the % inhibition of renin activity achieved by each test compound. The results are shown in the following Table, in which the compounds of the invention are identified by the numbers assigned to them in the foregoing list. The values given are the mean of 3 or 4 experiments.
The isomers of these test compounds employed in these experiments are those isomers prepared as described in the subsequent Examples.

inhibition at 1 µM [%] | SMILES
95 | CC[C@H](C)[C@@H](CO)NC(=O)C[C@H](O)[C@H](CC(C)C)NC(=O)C(Cc1cscn1)NC(=O)C(Cc1cccc2ccccc12)Cc1cccc2ccccc12 (mixture of isomers) [Compound No. 223, N-[4(S)-{N-[Bis(1-naphthylmethyl)acetyl]-3-(4-thiazolyl)-DL-alanylamino}-3(S)-hydroxy-6-methyl-heptanoyl]-L-isoleucinol]
99 | C=CCC(NC(=O)C(Cc1cccc2ccccc12)Cc1cccc2ccccc12)C(=O)N[C@@H](CC(C)C)[C@@H](O)CC(=O)N[C@H](CO)[C@@H](C)CC (mixture of isomers) [compound 291, N-[4(S)-{N-[Bis(1-naphthylmethyl)acetyl]-DL-allylglycylamino}-3(S)-hydroxy-6-methylheptanoyl]-L-isoleucinol]
99 | CC[C@H](C)[C@@H](CO)NC(=O)C[C@H](O)[C@H](CC(C)C)NC(=O)[C@H](Cc1c[nH]cn1)NC(=O)C(Cc1cccc2ccccc12)Cc1cccc2ccccc12 [Compound No. 72, N-[4(S)-{N-[Bis(1-naphthylmethyl)acetyl]-L-histidylamino}-3(S)-hydroxy-6-methylheptanoyl]-L-isoleucinol]
98.2 | CC[C@H](C)CNC(=O)C[C@H](O)[C@H](CC(C)C)NC(=O)[C@H](Cc1c[nH]cn1)NC(=O)C(Cc1cccc2ccccc12)Cc1cccc2ccccc12 [Compound No. 74, 4(S)-{N-[Bis(1-naphthylmethyl)acetyl]-L-histidyl-amino}-3(S)-hydroxy-6-methyl-N-[2(S)-(-)-methylbutyl]-heptanamide]
99 | CCCC[C@H](NC(=O)C(Cc1cccc2ccccc12)Cc1cccc2ccccc12)C(=O)N[C@@H](CC(C)C)[C@@H](O)CC(=O)N[C@H](CO)[C@@H](C)CC [Compound No. 88, N-[4(S)-{N-[Bis(1-naphthylmethyl)acetyl]-L-norleucylamino}-3(S)-hydroxy-6-methylheptanoyl]-L-isoleucinol]
93.5 | CC[C@H](C)[C@@H](CO)NC(=O)C[C@H](O)[C@H](CC(C)C)NC(=O)[C@H](CCSC)NC(=O)C(Cc1cccc2ccccc12)Cc1cccc2ccccc12 [Compound No. 196, N-[4(S)-{N-[Bis(1-naphthylmethyl)acetyl]-L-methionyl-amino}-3(S)-hydroxy-6-methylheptanoyl]-L-isoleucinol]
99 | CCCCCCCC(NC(=O)C(Cc1cccc2ccccc12)Cc1cccc2ccccc12)C(=O)N[C@@H](CC(C)C)[C@@H](O)CC(=O)N[C@H](CO)[C@@H](C)CC (stereo partly drawn) [Compound No. 286, N-[4(S)-{2(RS)-(Bis(1-naphthylmethyl)acetyl]amino-nonanovl}amino-3(S)-hydroxv-6-methylheptanoyl]-L-isoleucinol]
93.5 | CC(C)C[C@H](NC(=O)C(CCCCc1ccccc1)Cc1cccc2ccccc12)C(=O)N[C@@H](CC(C)C)[C@@H](O)CC(=O)NCCN1CCOCC1 (stereo partly drawn) [compound 15]
99 | CCOCCNC(=O)C[C@H](O)[C@H](CC(C)C)NC(=O)[C@H](CC(C)C)NC(=O)C(Cc1cccc2ccccc12)Cc1cccc2ccccc12 [compound 45, 4(S)-{N-[Bis(1-naphthylmethyl)acetyl]-L-leucylamino}-3(S)-hydroxv-6-methvl-N-(2-ethoxyethvl)heptanamide]
93 | CC[C@H](C)[C@@H](CO)NC(=O)C[C@H](O)[C@H](CC(C)C)NC(=O)[C@H](CCC(N)=O)NC(=O)C(Cc1cccc2ccccc12)Cc1cccc2ccccc12 [compound 208, N-[4(S)-{N-[Bis(1-naphthylmethyl)acetyl]-L-glutaminylamino}-3(S)-hydroxy-6-methylheptanoyl]-L-isoleucinol]
92 | CC[C@H](C)[C@@H](CO)NC(=O)C[C@H](O)[C@H](CC(C)C)NC(=O)[C@H](CCC(=O)O)NC(=O)C(Cc1cccc2ccccc12)Cc1cccc2ccccc12 [compound 212]
99 | CCCCCC(NC(=O)C(Cc1cccc2ccccc12)Cc1cccc2ccccc12)C(=O)N[C@@H](CC(C)C)[C@@H](O)CC(=O)NCC(C)CC (stereo partly drawn) [compound 274]
